Experimental data published in ChEMBL document CHEMBL1148110, “New lanostanoids from the fungus Ganoderma concinna” (J Nat Prod, 2002).
Calls of active or inactive are those of the source. The calls are words filed in the database; no cut-off is given here.

Tests used:
HL-60 [1] = experiment: Induction of apoptosis in human HL60 cells assessed as intranucleosomal hydrolysis of chromatin at 30 uM after 24 hrs by agarose gel electrophoresis; type: functional, cell-based
HL-60 [2] = experiment: Induction of apoptosis in human HL60 cells assessed as chromatin condensation and fragmentation at 30 uM after 24 hrs by quantitative fluorescent microscopy
HL-60 [3] = experiment: Induction of apoptosis in human HL60 cells assessed as morphological changes at 30 uM after 24 hrs by Hoechst 33258 staining; type: functional, cell-based
HL-60 [4] = experiment: Cytotoxicity against human HL60 cells after 24 hrs by MTT assay; type: functional, cell-based; settings: HL-60, 24 h

Structure (SMILES) | Activity (HL-60 [1]) | Activity (HL-60 [2]) | Activity (HL-60 [3]) | IC50 (HL-60 [4])
CC(=O)[C@H]1CC(=O)[C@@]2(C)[C@]34O[C@@]3(C(=O)C[C@]12C)[C@@]1(C)CCC(=O)C(C)(C)[C@@H]1CC4=O | Active | 12% |  | 
C/C(C=O)=C/CC[C@@H](C)[C@H]1CC[C@@]2(C)C3=CC[C@H]4C(C)(C)[C@@H](O)CC[C@]4(C)C3=CC[C@]12C | Active | 15% |  | 
C/C(=C/CC[C@@H](C)[C@H]1C[C@H](O)[C@@]2(C)C3=CC[C@H]4C(C)(C)C(=O)CC[C@]4(C)C3=CC[C@]12C)CO | Active | 62% | Active | 15.7 µM
